Measurements published in patent US7265103B2, “Substituted amino isoxazoline derivatives and their use as anti-depressants” (Janssen Pharmaceutica NV., priority 2002, dated 2007).

molecular target: T1, hα2A receptor (Homo sapiens, UniProt P08913); assay: Radioligand binding experiment for α2A-adrenergic receptor ([3H]-raulwolscine); conditions: CHO cell membranes with human α2A receptor, [3H]raulwolscine 1 nM; read-out: pIC50 α2A (converted)
T1 construct: expressed in transfected cells; host or cells: CHO cells
T1 sequence (P08913 1-465): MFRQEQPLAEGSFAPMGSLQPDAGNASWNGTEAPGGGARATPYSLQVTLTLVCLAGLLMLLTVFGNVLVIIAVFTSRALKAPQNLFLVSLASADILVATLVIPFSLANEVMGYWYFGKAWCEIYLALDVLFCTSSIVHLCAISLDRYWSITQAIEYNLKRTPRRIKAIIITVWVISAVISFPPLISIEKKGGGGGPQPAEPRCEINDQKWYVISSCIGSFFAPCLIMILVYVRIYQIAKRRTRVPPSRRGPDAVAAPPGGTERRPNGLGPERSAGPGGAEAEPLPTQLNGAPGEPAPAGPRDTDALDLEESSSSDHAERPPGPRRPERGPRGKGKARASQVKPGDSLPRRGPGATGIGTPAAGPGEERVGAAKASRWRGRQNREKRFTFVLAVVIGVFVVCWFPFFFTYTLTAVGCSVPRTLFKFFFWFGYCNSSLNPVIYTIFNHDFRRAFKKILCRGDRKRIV
Method: (§1) The interaction of the compounds of Formula (I) with hα2-receptors and h5-HT-transporters was assessed in in vitro radioligand binding experiments. In general, a low concentration of a radioligand with a high binding affinity for a particular receptor or transporter is incubated with a sample of a tissue preparation enriched in a particular receptor or transporter or with a preparation of cells expressing cloned human receptors in a buffered medium. During the incubation, the radioligand binds to the receptor or transporter. When equilibrium of binding is reached, the receptor bound radioactivity is separated from the non-bound radioactivity, and the receptor- or transporter-bound activity is counted. The interaction of the test compounds with the receptor is assessed in competition binding experiments. Various concentrations of the test compound are added to the incubation mixture containing the receptor- or transporter preparation and the radioligand. The test compound in proportion to its binding affinity and its concentration inhibits binding of the radioligand. The radioligand used for hα2A, hα2B and hα2C receptor binding was [^3H]-raulwolscine and for the h5-HT transporter was [^3H]paroxetine.
(§2) CHO cells, stabile transfected with human adrenergic-α2A-, -α2B or α2C receptor cDNA, were cultured in Dulbecco's Modified Eagle's Medium (DMEM)/Nutrient mixture Ham's F12 (ratio 1:1)(Gibco, Gent-Belgium) supplemented with 10% heat inactivated fetal calf serum (Life Technologies, Merelbeke-Belgium) and antibiotics (100 IU/ml penicillin G, 100 μg/ml streptomycin sulphate, 110 μg/ml pyruvic acid and 100 μg/ml L-glutamine). One day before collection, cells were induced with 5 mM sodiumbutyrate. Upon 80-90% of confluence, cells were scraped in phosphate buffered saline without Ca^2+ and Mg^2+ and collected by centrifugation at 1500×g for 10 min. The cells were homogenised in Tris-HCl 50 mM using an Ultraturrax homogenizer and centrifuged for 10 min at 23,500×g. The pellet was washed once by resuspension and rehomogenization and the final pellet was resuspended in Tris-HCl, divided in 1 ml aliquots and stored at −70° C.
(§3) Membranes were thawed and re-homogenized in incubation buffer (glycylglycine 25 mM, pH 8.0). In a total volume of 500 μl, 2-10 μg protein was incubated with [^3H]raulwolscine (NET-722) (New England Nuclear, USA) (1 nM final concentration) with or without competitor for 60 min at 25° C. followed by rapid filtration over GF/B filter using a Filtermatel 96 harvester (Packard, Meriden, Conn.). Filters were rinsed extensively with ice-cold rinsing buffer (Tris-HCl 50 mM pH 7.4). Filter-bound radioactivity was determined by scintillation counting in a Topcount (Packard, Meriden, Conn.) and results were expressed as counts per minute (cpm). Non-specific binding was determined in the presence of 1 μM oxymetazoline for hα2A- and hα2B receptors and 1 μM spiroxatrine for hα2C receptors.
(§4) Data from assays in the presence of compound were calculated as a percentage of total binding measured in the absence of test compound. Inhibition curves, plotting percent of total binding versus the log value of the concentration of the test compound, were automatically generated, and sigmoidal inhibition curves were fitted using non-linear regression. The pIC50 values of test compounds were derived from individual curves.

IC50 [nM]	SMILES
50.1	CCNc1cc2c(cc1OC)C1=NOC(CN3CCN(CC(C)=Cc4ccc(F)cc4)CC3)C1CO2 (stereo not drawn) [Compound 105]
39.8	CC(=Cc1ccccc1)CN1CCN(CC2ON=C3c4ccc(N(C)Cc5ccccc5)cc4OCC32)CC1 (stereo not drawn) [Compound 48]
39.8	CC(=Cc1ccc(F)cc1)CN1CCN(CC2ON=C3c4ccc(N(C)CCN(C)C(C)(C)C)cc4OCC32)CC1 (stereo not drawn) [Compound 122]
5.01	COc1cc2c(cc1N)OCC1C2=NOC1CN1CCN(C/C(C)=C/c2ccccc2)CC1 (stereo not drawn) [Compound 8]
63.1	CC(=Cc1ccc(F)cc1)CN1CCN(CC2ON=C3c4ccc(NC(C)CO)cc4OCC32)CC1 (stereo not drawn) [Compound 134]
5.01	C/C(=C\c1ccccc1)CN1CCN(CC2ON=C3c4ccc(NC(=O)[C@@H]5CCCN5)cc4OCC32)CC1 (stereo partly drawn) [Compound 57]
3.98	COc1cc2c(cc1NC(C)=O)OCC1C2=NOC1CN1CCN(C/C(C)=C/c2ccccc2)CC1 (stereo not drawn) [Compound 10]
3160	CCNC(=O)N(C(=O)NCC)c1ccc2c(c1)OCC1C2=NOC1CN1CCN(CC(C)=Cc2ccc(F)cc2)CC1 (stereo not drawn) [Compound 60]
10	COc1cc2c(cc1Nc1ccncc1)OCC1C2=NOC1CN1CCN(CC(C)=Cc2ccc(F)cc2)CC1 (stereo not drawn) [Compound 100]
2.51	CNc1ccc2c(c1)OCC1C2=NOC1CN1CCN(CC(C)=Cc2ccccc2)CC1 (stereo not drawn) [Compound 87]
79.4	COc1cc2c(cc1N1CCC(C)CC1)OCC1C2=NOC1CN1CCN(CC(C)=Cc2ccc(F)cc2)CC1 (stereo not drawn) [Compound 103]
631	CC(=Cc1ccccc1)CN1CCN(CC2ON=C3c4ccc(N(C)CCO)cc4OCC32)CC1 (single isomer, unassigned) [Compound 33]
63.1	CC(=Cc1ccc(F)cc1)CN1CCN(CC2ON=C3c4ccc(NC(=O)OC(C)(C)C)cc4OCC32)CC1 (stereo not drawn) [Compound 58]
1.58	CC(=Cc1cccc(F)c1)CN1CCN(CC2ON=C3c4ccc(N(C)CCN(C)C)cc4OCC32)CC1 (stereo not drawn) [Compound 22]
12.6	CC(=Cc1ccc(F)cc1)CN1CCN(CC2ON=C3c4ccc(N(C)CCN)cc4OCC32)CC1 (stereo not drawn) [Compound 19]

molecular target: T2, hα2C receptor (Homo sapiens, UniProt P18825); assay: Radioligand binding experiment for α2C-adrenergic receptor ([3H]-raulwolscine); conditions: CHO cell membranes with human α2C receptor, [3H]raulwolscine 1 nM; read-out: pIC50 α2C (converted)
T2 construct: expressed in transfected cells; host or cells: CHO cells
T2 sequence (P18825 1-462): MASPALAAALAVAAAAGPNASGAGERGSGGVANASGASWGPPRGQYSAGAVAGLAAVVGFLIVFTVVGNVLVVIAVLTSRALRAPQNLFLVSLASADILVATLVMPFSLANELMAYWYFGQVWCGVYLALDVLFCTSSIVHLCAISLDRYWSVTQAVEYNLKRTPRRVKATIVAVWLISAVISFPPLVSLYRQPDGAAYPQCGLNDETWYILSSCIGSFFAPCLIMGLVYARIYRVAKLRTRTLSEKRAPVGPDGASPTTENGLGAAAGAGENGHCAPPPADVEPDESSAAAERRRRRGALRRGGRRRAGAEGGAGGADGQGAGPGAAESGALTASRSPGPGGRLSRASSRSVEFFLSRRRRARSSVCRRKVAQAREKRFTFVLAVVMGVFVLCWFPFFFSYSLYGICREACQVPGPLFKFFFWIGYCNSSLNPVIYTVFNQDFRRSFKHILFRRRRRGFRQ
Method: as §1, §2, §3, §4

IC50 [nM]	SMILES
31.6	CCNc1cc2c(cc1OC)C1=NOC(CN3CCN(CC(C)=Cc4ccc(F)cc4)CC3)C1CO2 (stereo not drawn) [Compound 105]
31.6	CC(=Cc1ccccc1)CN1CCN(CC2ON=C3c4ccc(N(C)Cc5ccccc5)cc4OCC32)CC1 (stereo not drawn) [Compound 48]
7.94	CC(=Cc1ccc(F)cc1)CN1CCN(CC2ON=C3c4ccc(N(C)CCN(C)C(C)(C)C)cc4OCC32)CC1 (stereo not drawn) [Compound 122]
1.58	COc1cc2c(cc1N)OCC1C2=NOC1CN1CCN(C/C(C)=C/c2ccccc2)CC1 (stereo not drawn) [Compound 8]
126	CC(=Cc1ccc(F)cc1)CN1CCN(CC2ON=C3c4ccc(NC(C)CO)cc4OCC32)CC1 (stereo not drawn) [Compound 134]
0.631	C/C(=C\c1ccccc1)CN1CCN(CC2ON=C3c4ccc(NC(=O)[C@@H]5CCCN5)cc4OCC32)CC1 (stereo partly drawn) [Compound 57]
1.26	COc1cc2c(cc1NC(C)=O)OCC1C2=NOC1CN1CCN(C/C(C)=C/c2ccccc2)CC1 (stereo not drawn) [Compound 10]
398	CCNC(=O)N(C(=O)NCC)c1ccc2c(c1)OCC1C2=NOC1CN1CCN(CC(C)=Cc2ccc(F)cc2)CC1 (stereo not drawn) [Compound 60]
5.01	COc1cc2c(cc1Nc1ccncc1)OCC1C2=NOC1CN1CCN(CC(C)=Cc2ccc(F)cc2)CC1 (stereo not drawn) [Compound 100]
3.16	CNc1ccc2c(c1)OCC1C2=NOC1CN1CCN(CC(C)=Cc2ccccc2)CC1 (stereo not drawn) [Compound 87]
63.1	COc1cc2c(cc1N1CCC(C)CC1)OCC1C2=NOC1CN1CCN(CC(C)=Cc2ccc(F)cc2)CC1 (stereo not drawn) [Compound 103]
39.8	CC(=Cc1ccccc1)CN1CCN(CC2ON=C3c4ccc(N(C)CCO)cc4OCC32)CC1 (single isomer, unassigned) [Compound 33]
31.6	CC(=Cc1ccc(F)cc1)CN1CCN(CC2ON=C3c4ccc(NC(=O)OC(C)(C)C)cc4OCC32)CC1 (stereo not drawn) [Compound 58]
1.26	CC(=Cc1cccc(F)c1)CN1CCN(CC2ON=C3c4ccc(N(C)CCN(C)C)cc4OCC32)CC1 (stereo not drawn) [Compound 22]
2.51	CC(=Cc1ccc(F)cc1)CN1CCN(CC2ON=C3c4ccc(N(C)CCN)cc4OCC32)CC1 (stereo not drawn) [Compound 19]

molecular target: T3, h5-HT transporter (Homo sapiens, UniProt P31645); assay: Radioligand binding experiment for 5-HT transporter ([3H]paroxetine); conditions: human platelet membranes, [3H]paroxetine 0.5 nM
T3 construct: Human platelet membranes (Oceanix Biosciences Corporation, Hanover, Md., USA) were thawed; tissue Oceanix Biosciences Corporation; host or cells: human platelet membranes
Method: as §1
Human platelet membranes (Oceanix Biosciences Corporation, Hanover, Md., USA) were thawed, diluted in buffer (Tris-HCl 50 mM, 120 mM NaCl and 5 mM KCl) and quickly (max 3 s) homogenised with an Ultraturrax homogenizer. In a total volume of 250 μL, 50-100 μg protein was incubated with [^3H]paroxetine (NET-869) (New England Nuclear, USA) (0.5 nM final concentration) with or without competitor for 60 min at 25° C. Incubation was stopped by rapid filtration of the incubation mixture over GF/B filters, pre-wetted with 0.1% polyethyleneamine, using a Filtermatel 96 harvester (Packard, Meriden, Conn.). Filters were rinsed extensively with ice-cold buffer and radioactivity on the filters was counted in a Topcount liquid scintillation counter (Packard, Meriden, Conn.). Data were expressed as cpm. Imipramine (at 1 μM final concentration) was used to determine the non-specific binding.
as §4

T3 sequence (P31645 whole entry): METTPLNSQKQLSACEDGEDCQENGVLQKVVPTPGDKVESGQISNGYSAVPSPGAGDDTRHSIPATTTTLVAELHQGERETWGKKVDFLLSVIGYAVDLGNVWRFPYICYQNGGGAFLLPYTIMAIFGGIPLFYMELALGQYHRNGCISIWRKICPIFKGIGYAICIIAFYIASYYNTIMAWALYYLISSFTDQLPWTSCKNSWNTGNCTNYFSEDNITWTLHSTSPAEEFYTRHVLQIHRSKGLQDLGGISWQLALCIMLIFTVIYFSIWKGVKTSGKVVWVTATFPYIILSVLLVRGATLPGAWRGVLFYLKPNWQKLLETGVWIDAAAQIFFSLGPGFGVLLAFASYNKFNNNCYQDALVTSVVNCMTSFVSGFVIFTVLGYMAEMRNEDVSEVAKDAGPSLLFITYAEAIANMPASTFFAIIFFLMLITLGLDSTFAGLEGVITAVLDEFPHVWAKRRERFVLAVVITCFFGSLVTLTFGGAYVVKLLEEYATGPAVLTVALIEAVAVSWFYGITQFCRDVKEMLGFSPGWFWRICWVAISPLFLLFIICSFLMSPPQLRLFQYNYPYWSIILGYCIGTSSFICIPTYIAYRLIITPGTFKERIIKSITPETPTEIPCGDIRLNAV

IC50 [nM]	SMILES
20	CCNc1cc2c(cc1OC)C1=NOC(CN3CCN(CC(C)=Cc4ccc(F)cc4)CC3)C1CO2 (stereo not drawn) [Compound 105]
158	CC(=Cc1ccccc1)CN1CCN(CC2ON=C3c4ccc(N(C)Cc5ccccc5)cc4OCC32)CC1 (stereo not drawn) [Compound 48]
6.31	CC(=Cc1ccc(F)cc1)CN1CCN(CC2ON=C3c4ccc(N(C)CCN(C)C(C)(C)C)cc4OCC32)CC1 (stereo not drawn) [Compound 122]
25.1	COc1cc2c(cc1N)OCC1C2=NOC1CN1CCN(C/C(C)=C/c2ccccc2)CC1 (stereo not drawn) [Compound 8]
126	CC(=Cc1ccc(F)cc1)CN1CCN(CC2ON=C3c4ccc(NC(C)CO)cc4OCC32)CC1 (stereo not drawn) [Compound 134]
25.1	C/C(=C\c1ccccc1)CN1CCN(CC2ON=C3c4ccc(NC(=O)[C@@H]5CCCN5)cc4OCC32)CC1 (stereo partly drawn) [Compound 57]
63.1	COc1cc2c(cc1NC(C)=O)OCC1C2=NOC1CN1CCN(C/C(C)=C/c2ccccc2)CC1 (stereo not drawn) [Compound 10]
6310	CCNC(=O)N(C(=O)NCC)c1ccc2c(c1)OCC1C2=NOC1CN1CCN(CC(C)=Cc2ccc(F)cc2)CC1 (stereo not drawn) [Compound 60]
10	COc1cc2c(cc1Nc1ccncc1)OCC1C2=NOC1CN1CCN(CC(C)=Cc2ccc(F)cc2)CC1 (stereo not drawn) [Compound 100]
50.1	CNc1ccc2c(c1)OCC1C2=NOC1CN1CCN(CC(C)=Cc2ccccc2)CC1 (stereo not drawn) [Compound 87]
126	COc1cc2c(cc1N1CCC(C)CC1)OCC1C2=NOC1CN1CCN(CC(C)=Cc2ccc(F)cc2)CC1 (stereo not drawn) [Compound 103]
12.6	CC(=Cc1ccccc1)CN1CCN(CC2ON=C3c4ccc(N(C)CCO)cc4OCC32)CC1 (single isomer, unassigned) [Compound 33]
31.6	CC(=Cc1ccc(F)cc1)CN1CCN(CC2ON=C3c4ccc(NC(=O)OC(C)(C)C)cc4OCC32)CC1 (stereo not drawn) [Compound 58]
1.58	CC(=Cc1cccc(F)c1)CN1CCN(CC2ON=C3c4ccc(N(C)CCN(C)C)cc4OCC32)CC1 (stereo not drawn) [Compound 22]
10	CC(=Cc1ccc(F)cc1)CN1CCN(CC2ON=C3c4ccc(N(C)CCN)cc4OCC32)CC1 (stereo not drawn) [Compound 19]
